Assay [1] has as its target T1, Muscarinic acetylcholine receptor M2 (Rattus norvegicus, UniProt P10980).
T1 sequence (P10980 whole entry): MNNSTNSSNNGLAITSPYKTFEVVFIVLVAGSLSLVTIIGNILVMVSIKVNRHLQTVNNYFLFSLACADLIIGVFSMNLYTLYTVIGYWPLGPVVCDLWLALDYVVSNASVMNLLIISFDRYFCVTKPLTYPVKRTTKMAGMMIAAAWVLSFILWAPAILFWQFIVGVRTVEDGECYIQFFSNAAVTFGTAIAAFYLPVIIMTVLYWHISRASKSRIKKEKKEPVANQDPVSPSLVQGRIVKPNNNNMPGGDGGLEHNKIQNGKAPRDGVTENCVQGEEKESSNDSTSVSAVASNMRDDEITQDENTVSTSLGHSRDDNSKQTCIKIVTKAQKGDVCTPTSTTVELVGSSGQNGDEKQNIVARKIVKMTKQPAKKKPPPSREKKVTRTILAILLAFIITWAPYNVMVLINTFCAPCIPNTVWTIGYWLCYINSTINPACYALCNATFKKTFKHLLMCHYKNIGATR
The assay is described as follows: Displacement of [3H]QNB (quinuclidinyl benzylate) from muscarinic M2 receptor of rat heart homogenates. The assay is classed as tissue-based.

The next assay relates to Mus musculus. The assay is described as follows: Anticonvulsant activity was determined in MES model, after 1 hour post administration in mice. The assay is classed as functional.
Assay [2] deals with T2, Muscarinic acetylcholine receptor M1 (Rattus norvegicus, UniProt P08482).
T2 sequence (P08482 whole entry): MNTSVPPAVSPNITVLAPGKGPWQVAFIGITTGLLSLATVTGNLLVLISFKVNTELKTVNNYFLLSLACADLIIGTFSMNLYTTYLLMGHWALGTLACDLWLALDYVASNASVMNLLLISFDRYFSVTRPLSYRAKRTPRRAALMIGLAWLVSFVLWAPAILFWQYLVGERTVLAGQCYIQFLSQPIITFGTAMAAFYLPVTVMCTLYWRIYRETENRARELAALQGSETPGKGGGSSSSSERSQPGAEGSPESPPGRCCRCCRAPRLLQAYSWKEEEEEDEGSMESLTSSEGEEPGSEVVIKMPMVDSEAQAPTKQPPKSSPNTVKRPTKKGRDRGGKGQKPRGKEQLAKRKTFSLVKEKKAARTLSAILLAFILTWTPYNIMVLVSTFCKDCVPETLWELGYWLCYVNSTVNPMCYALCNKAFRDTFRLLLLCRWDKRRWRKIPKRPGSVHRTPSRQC
Briefly: Displacement of [3H]pirenzepine from muscarinic M1 receptor of rat cortex homogenates.

“And” between values parts separate entries of the source, which are not always exact repeats. Equal entries are not always repeated. A value given as a limit tells only on which side of the number the result lay.

In the case of `CCN(CC)CC#CCN1C(=O)NC(c2ccccc2)(c2ccccc2)C1=O`, the Ki came out at 950 nM in assay [1] and 380 nM in assay [2]. Moreover, the 50% effect level in the assay on Mus musculus (ED50) was put at a dose of 83.6 mg/kg.

With `CCN(CC)CC#CCN1C(=O)CC2(C1=O)c1ccccc1-c1ccccc12`, the inhibitory constant (Ki) in assay [1] was over 10000 nM; in assay [2] it was 1630 nM. Besides, the ED50 with Mus musculus is 23.7 mg/kg and 58 µmol/kg.

As to `CCN(CC)CC#CCN1C(=O)c2ccccc2C1=O`, the Ki in assay [1] amounted to 100 nM; in assay [2], 30 nM.

Turning to `O=C1CC2(CCc3ccccc32)C(=O)N1CC#CCN1CCCC1` (stereo not drawn), the inhibition constant (Ki) in assay [1] was over 10000 nM; in assay [2], 1590 nM. This molecule yielded an ED50 in the assay with Mus musculus of over 600 mg/kg.

In the case of `CC(C)N(CC#CCN1C(=O)CC2(C1=O)c1ccccc1-c1ccccc12)C(C)C`, the results for the Ki in assay [1] and in assay [2] were over 10000 nM and 1620 nM, respectively.

Regarding `CCN(CC)CC#CCN1C(=O)CC(c2ccccc2)(c2ccccc2)C1=O`, the results for the inhibitory constant (Ki) in assay [1] and in assay [2] were 380 nM and 120 nM, respectively. In addition, the 50% effective dose (ED50) in the assay with Mus musculus is 20.1 mg/kg and 49 µmol/kg.

Turning to `CCN(CC)CC#CCN1C(=O)CC2(C1=O)c1ccccc1CCc1ccccc12`, the figures for the Ki in assay [1] and in assay [2] were 2090 nM and 460 nM, respectively. Further, the ED50 in the assay on Mus musculus was 9.6 mg/kg and 22 µmol/kg.

In the case of `CCN(CC)CC#CCN1C(=O)CC(c2ccccc2)C1=O` (stereo not drawn), the Ki in assay [1] was over 10000 nM; in assay [2], 2300 nM. For the same molecule, the median effective dose (ED50) in the assay on Mus musculus is 48.9 mg/kg and 126 µmol/kg.

On to `O=C1NC(c2ccccc2)(c2ccccc2)C(=O)N1CC#CCN1CCCC1`, for which the Ki in assay [1] was over 10000 nM; in assay [2], 640 nM.

Regarding `CCN(CC)CC#CCN1C(=O)CC2(CCc3ccccc32)C1=O` (stereo not drawn), the Ki is over 10000 nM in assay [1] and 680 nM in assay [2].

As to `CCN(CC)CC#CCN1C(=O)NC2(CCc3ccccc32)C1=O` (stereo not drawn), the values for the Ki in assay [1] and in assay [2] were over 10000 nM and 1050 nM, respectively. Further, in the assay with Mus musculus, the ED50 was 55.4 mg/kg and 153 µmol/kg.

Turning to `CC(C)N(CC#CCN1C(=O)CC(c2ccccc2)(c2ccccc2)C1=O)C(C)C`, the Ki amounted to 440 nM in assay [1] and 530 nM in assay [2]. In addition, in the assay on Mus musculus, the 50% effective dose (ED50) was 17.5 mg/kg and 40 µmol/kg.

Regarding `O=C1NC(=O)C(c2ccccc2)(c2ccccc2)N1` [PHENYTOIN], the ED50 in the assay with Mus musculus amounted to 16.2 mg/kg.

For the origin of these results see ChEMBL document CHEMBL1150993, “Design of dual acting anticonvulsant-antimuscarinic succinimide and hydantoin derivatives” (Bioorg Med Chem Lett, 1997).
